These results are taken from US9006467B2, “1,2,3-triazole containing artemisinin compounds and process for preparation thereof” (Councel of Scientific & Industrial Research, priority 2011, dated 2015).

SMILES strings stand for the structures.

Data set [1] deals with colon HCT-15 human cancer cell line. Description: In vitro cytotoxicity against human cancer cell lines (sulforhodamine B), colon HCT-15. The following applies: 48 hours, read-out: % GROWTH INHIBITION colon HCT-15; for inhibition at 50 µM: 5 × 10^−5 M. It is filed as cell-based.
Data set [2] concerns cell line panels consisting of 60 lines. As to conditions: nine disease-related subpanels; cited from earlier work.
The test system of data set [3] is colon HCT-15 human cancer cell line. Description: In vitro cytotoxicity against human cancer cell lines (sulforhodamine B), colon HCT-15. In kind it is cell-based. As to conditions: 1 × 10^−5 M, 48 hours, read-out: % GROWTH INHIBITION colon HCT-15. As to the method: (§1) The human cancer cell lines procured from National Cancer Institute, Frederick, U.S.A., were used in present study. Cells were grown in tissue culture flasks in complete growth medium (RPMI-1640 medium with 2 mM glutamine, 100 μg/mL streptomycin, pH 7.4, sterilized by filtration and supplemented with 10% fetal bovine serum and 100 units/ml penicillin before use) at 37 QC in an atmosphere of 5% CO2 and 90% relative humidity in a carbon dioxide incubator. The cells at subconfluent stage were harvested from the flask by treatment with trypsin (0.05% in PBS containing 0.02% EDTA) for determination of cytotoxicity. The cell suspension of the required cell density was prepared in complete growth medium with gentamycin (50 μg/mL) for determination of cytotoxicity.
(§2) Stock solutions of 2×10^−2M of test materials were prepared in DMSO. The stock solutions were serially diluted with complete growth medium containing 50 μg/ml of gentamycin to obtain working test solution of 2×10^−5M to obtain final concentration of 1×10^−5M respectively.
(§3) In vitro cytotoxicity against human cancer cell lines was determined (Monks et al., J. Natl. Cancer Inst. 1991, 83, 757-766). The 100 μL of cell suspension was added to each well of the 96-well tissue culture plate. The cells were incubated for 24 hours (at 37° C. in an atmosphere of 5% CO2 and 90% relative humidity in a carbon dioxide incubator). Test materials in complete growth medium (100 μL) were added after 24 hours incubation to the wells containing cells. The plates were further incubated for 48 hours in a carbon dioxide incubator after addition of test material. The cell growth was stopped by gently layering trichloroacetic acid (50 μL, 50% w/v) on top of the medium in all the wells. The plates were incubated at 4° C. for one hour to fix the cells attached to the bottom of the wells. The liquid of all the wells was then gently decanted and discarded. The plates were washed five times with distilled water and air-dried. Cell growth was measured by staining with sulforhodamine B dye (Skehan et al., J. Natl. Cancer Inst. 1990, 82, 1107-1112). The adsorbed dye was dissolved in Tris-Buffer (100 μL, 0.01M, pH 10.4) and plates were gently stirred for 10 minutes on a mechanical stirrer. The optical density (OD) was recorded on ELISA reader at 540 nm.
(§4) The cell growth was calculated by subtracting mean OD value of respective blank from the mean OD value of experimental set. Percent growth in presence of test material was calculated considering the growth in absence of any test material as 100% and in turn percent growth inhibition in presence of test material was calculated. Suitable blank, controls and positive controls were included in the study.

Data set [4] deals with Ehrlich ascites tumor (EAT) cells. The following applies: MTT assay, read-out: IC50 (drug concentration causing 50% growth inhibition of the tumor cells); cited from earlier work.
The next data set has as its system Lung cancer cell A-549. Description: In vitro cytotoxicity against human cancer cell lines (sulforhodamine B), Lung A-549. In kind it is cell-based. The following applies: 48 hours, read-out: % GROWTH INHIBITION Lung A-549; for inhibition at 10 µM: A549, 1 × 10^−5 M; for inhibition at 50 µM: A549, 5 × 10^−5 M. As to the method:
as §1, §2, §3, §4

Data set [5] concerns CMV. As to conditions: cited from earlier work.
The subject of another data set is P388 leukemia. The following applies: NCI Report on NSC 369397; cited from earlier work.
The subject of the next data set is leukaemia THP-1. Description: In vitro cytotoxicity against human cancer cell lines (sulforhodamine B), leukaemia THP-1. The following applies: 48 hours, read-out: % GROWTH INHIBITION leukaemia THP-1; for inhibition at 50 µM: 5 × 10^−5 M; for inhibition at 10 µM: 1 × 10^−5 M. In kind it is cell-based. As to the method:
as §1, §2, §3, §4

Data set [6] has as its system human liver cell line of HEP-2 type. The data set is described as follows: In vitro cytotoxicity against human cancer cell lines (sulforhodamine B), Liver HEP-2. It is filed as cell-based. As to conditions: 1 × 10^−5 M, 48 hours. As to the method: as §1, with “The cell suspension of the required cell density was prepared in complete growth medium with gentamycin (50 μg/mL) for determination of cytotoxicity.” left out
In vitro cytotoxicity against human cancer cell lines was determined (Monks et al., J. Natl. Cancer Inst. 1991, 83, 757-766). […] Cell growth was measured by staining with sulforhodamine B dye (Skehan et al., J. Natl. Cancer Inst. 1990, 82, 1107-1112). […] The optical density (OD) was recorded on ELISA reader at 540 nm.
The cell growth was calculated by subtracting mean OD value of respective blank from the mean OD value of experimental set. Percent growth in presence of test material was calculated considering the growth in absence of any test material as 100% and in turn percent growth inhibition in presence of test material was calculated. […]

For data set [7], the system named is CMV. As to conditions: cited from earlier work. The source holds these as a separate data set.

As to `C[C@@H]1CC[C@H]2[C@@H](C)C(=O)O[C@@H]3O[C@@]4(C)CC[C@@H]1[C@]32OO4` [Artemisinin, artemisinin], the inhibition at 50 µM in data set [1] was 31%; in the data set with Lung cancer cell A-549, 29%. Further, the “anticancer activity in 60 cell line panel” value in data set [2] is on record as “very little anticancer activity”. The results for the inhibition at 10 µM (in [3]; with Lung cancer cell A-549) were 29% and 19%, respectively. In addition, the IC50 in data set [4] was 29.8 µM. For the same molecule, the “anti-CMV activity, in words” value in the data set on CMV [5] (in-vitro) is “lower anti-CMV activity compared to artesunate”. For the same molecule, in the data set on P388 leukemia, the “activity against P388 leukemia” value is “inactive”.
As to `C[C@H]1[C@H](OCc2cn(C3O[C@@H]4O[C@@]5(C)CC[C@H]6[C@H](C)CC[C@@H]([C@H]3C)[C@@]46OO5)nn2)O[C@@H]2O[C@]3(C)CC[C@H]4[C@H](C)CC[C@@H]1[C@@]24OO3` (some centres unmarked) [Compound 14], the inhibition at 50 µM came out at 63% in data set [1], 22% in the data set on Lung cancer cell A-549 and 62% with leukaemia THP-1.
For the molecule `O=c1[nH]cc(F)c(=O)[nH]1` [5-Fluorouracil, reference compound], the inhibition at 20 µM in data set [1] (2 × 10^−5 M) was found to be 65%; in the data set on leukaemia THP-1 (2 × 10^−5 M), 73%.
`CO[C@@]12[C@H](COC(N)=O)C3=C(C(=O)C(C)=C(N)C3=O)N1C[C@@H]1N[C@@H]12` [Mitomycin-c]: in data set [6], the “% GROWTH INHIBITION Liver HEP-2” value was 58%.
Consider `C[C@H]1[C@H](OCCc2cn(-c3ccc(-c4ccc(-n5cc(CCO[C@@H]6O[C@@H]7O[C@@]8(C)CC[C@H]9[C@H](C)CC[C@@H]([C@H]6C)[C@@]79OO8)nn5)cc4)cc3)nn2)O[C@@H]2O[C@@]3(C)CC[C@H]4[C@H](C)CC[C@@H]1[C@@]24OO3` [Compound 13], for which the inhibition at 50 µM in data set [1] turned out to be 66%; in the data set with Lung cancer cell A-549, 46%; with leukaemia THP-1, 82%. Moreover, the inhibition at 10 µM came out at 56% in data set [3], 41% in the data set with Lung cancer cell A-549 and 63% in the data set on leukaemia THP-1.
As to `C[C@H]1[C@H](OC(=O)CCC(=O)O)O[C@@H]2O[C@@]3(C)CC[C@H]4[C@H](C)CC[C@@H]1[C@@]24OO3` [artesunate, sodium artesunate], the “CMV replication in rat CMV model” value in the data set with CMV [7] is given as “inhibit CMV replication”. Moreover, the “in-vitro inhibition of clinical isolates” value in the data set with CMV [5] (11.1 μM) was 50-80%. The cytotoxicity entry in the data set on CMV [5] (CMV replication study) is listed as “no cytotoxicity”.
As to `C[C@H]1[C@H](OCc2cn(-c3ccc(-c4ccc(-n5cc(CO[C@@H]6O[C@@H]7O[C@@]8(C)CC[C@H]9[C@H](C)CC[C@@H]([C@H]6C)[C@@]79OO8)nn5)cc4)cc3)nn2)O[C@@H]2O[C@@]3(C)CC[C@H]4[C@H](C)CC[C@@H]1[C@@]24OO3` [Compound 12], the inhibition at 50 µM in [1] was determined as 78%; in the data set with Lung cancer cell A-549 it was 64%; in the data set on leukaemia THP-1 it was 80%. In addition, the inhibition at 10 µM in [3] was determined as 75%; in the data set on Lung cancer cell A-549, 56%; with leukaemia THP-1, 75%.
For `C[C@H]1[C@H](OCCc2cn(C3O[C@@H]4O[C@@]5(C)CC[C@H]6[C@H](C)CC[C@@H]([C@H]3C)[C@@]46OO5)nn2)O[C@@H]2O[C@]3(C)CC[C@H]4[C@H](C)CC[C@@H]1[C@@]24OO3` (some centres unmarked) [Compound 15], the inhibition at 50 µM in data set [1] was found to be 70%; in the data set on Lung cancer cell A-549, 48%; with leukaemia THP-1, 79%. The inhibition at 10 µM in data set [3] is 66%; in the data set with Lung cancer cell A-549, 29%; with leukaemia THP-1, 78%.
